In US9096584B2, “Compounds useful as inhibitors of ATR kinase” (Vertex Pharmaceuticals Incorporated, priority 2010, dated 2015):

Key:
[1] = molecular target: T1, full-length ATR (Homo sapiens, UniProt Q13535); test: ATR Inhibition Assay (radioactive-phosphate incorporation); assay type: biochemical
T1 construct: Assays were carried out at 25° C. in the presence of 5 nM full-length ATR
Protocol: Compounds were screened for their ability to inhibit ATR kinase using a radioactive-phosphate incorporation assay. Assays were carried out in a mixture of 50 mM Tris/HCl (pH 7.5), 10 mM MgCl2 and 1 mM DTT. Final substrate concentrations were 10 μM [γ-33P]ATP (3mCi 33P ATP/mmol ATP, Perkin Elmer) and 800 μM target peptide ([…] (SEQ ID NO: 1)).
Assays were carried out at 25° C. in the presence of 5 nM full-length ATR. An assay stock buffer solution was prepared containing all of the reagents listed above, with the exception of ATP and the test compound of interest. 13.5 μL of the stock solution was placed in a 96 well plate followed by addition of 2 μL of DMSO stock containing serial dilutions of the test compound (typically starting from a final concentration of 15 μM with 3-fold serial dilutions) in duplicate (final DMSO concentration 7%). The plate was pre-incubated for 10 minutes at 25° C. and the reaction initiated by addition of 15 μL [γ-33P]ATP (final concentration 10 μM).
The reaction was stopped after […] by the addition of 30 μL 0.1M phosphoric acid containing 2 mM ATP. A multiscreen phosphocellulose filter 96-well plate (Millipore, Cat no. MAPHN0B50) was pretreated with 100 μL 0.2M phosphoric acid prior to the addition of 45 μL of the stopped assay mixture. The plate was washed with 5×200 μL 0.2M phosphoric acid. After drying, 100 μL Optiphase ‘SuperMix’ liquid scintillation cocktail (Perkin Elmer) was added to the well prior to scintillation counting (1450 Microbeta Liquid Scintillation Counter, Wallac).
After removing mean background values for all of the data points, Ki(app) data were calculated from non-linear regression analysis of the initial rate data using the Prism software package (GraphPad Prism version 3.0cx for Macintosh, GraphPad Software, San Diego Calif., USA).
Below is a chart showing the ATR Inhibition Ki values of compounds of the disclosure.

[2] = tested on: HCT116 colorectal cancer cells; test: Cisplatin Sensitization Assay (96 h cell viability MTS); assay type: cell-based; details: concentration of compound required to reduce the IC50 of Cisplatin alone by at least 3-fold, 96 h MTS
Protocol: Compounds can be screened for their ability to sensitize HCT116 colorectal cancer cells to Cisplatin using a 96 h cell viability (MTS) assay. […] Compounds and Cisplatin are then both added simultaneously to the cell media in 2-fold serial dilutions from a top final concentration of 10 μM as a full matrix of concentrations in a final cell volume of 200 μl, and the cells are then incubated at 37° C. in 5% CO2. After 96 h, 40 μl of MTS reagent (Promega G358a) is added to each well and the cells are incubated for 1 h at 37° C. in 5% CO2.

T1 sequence (Q13535 whole entry): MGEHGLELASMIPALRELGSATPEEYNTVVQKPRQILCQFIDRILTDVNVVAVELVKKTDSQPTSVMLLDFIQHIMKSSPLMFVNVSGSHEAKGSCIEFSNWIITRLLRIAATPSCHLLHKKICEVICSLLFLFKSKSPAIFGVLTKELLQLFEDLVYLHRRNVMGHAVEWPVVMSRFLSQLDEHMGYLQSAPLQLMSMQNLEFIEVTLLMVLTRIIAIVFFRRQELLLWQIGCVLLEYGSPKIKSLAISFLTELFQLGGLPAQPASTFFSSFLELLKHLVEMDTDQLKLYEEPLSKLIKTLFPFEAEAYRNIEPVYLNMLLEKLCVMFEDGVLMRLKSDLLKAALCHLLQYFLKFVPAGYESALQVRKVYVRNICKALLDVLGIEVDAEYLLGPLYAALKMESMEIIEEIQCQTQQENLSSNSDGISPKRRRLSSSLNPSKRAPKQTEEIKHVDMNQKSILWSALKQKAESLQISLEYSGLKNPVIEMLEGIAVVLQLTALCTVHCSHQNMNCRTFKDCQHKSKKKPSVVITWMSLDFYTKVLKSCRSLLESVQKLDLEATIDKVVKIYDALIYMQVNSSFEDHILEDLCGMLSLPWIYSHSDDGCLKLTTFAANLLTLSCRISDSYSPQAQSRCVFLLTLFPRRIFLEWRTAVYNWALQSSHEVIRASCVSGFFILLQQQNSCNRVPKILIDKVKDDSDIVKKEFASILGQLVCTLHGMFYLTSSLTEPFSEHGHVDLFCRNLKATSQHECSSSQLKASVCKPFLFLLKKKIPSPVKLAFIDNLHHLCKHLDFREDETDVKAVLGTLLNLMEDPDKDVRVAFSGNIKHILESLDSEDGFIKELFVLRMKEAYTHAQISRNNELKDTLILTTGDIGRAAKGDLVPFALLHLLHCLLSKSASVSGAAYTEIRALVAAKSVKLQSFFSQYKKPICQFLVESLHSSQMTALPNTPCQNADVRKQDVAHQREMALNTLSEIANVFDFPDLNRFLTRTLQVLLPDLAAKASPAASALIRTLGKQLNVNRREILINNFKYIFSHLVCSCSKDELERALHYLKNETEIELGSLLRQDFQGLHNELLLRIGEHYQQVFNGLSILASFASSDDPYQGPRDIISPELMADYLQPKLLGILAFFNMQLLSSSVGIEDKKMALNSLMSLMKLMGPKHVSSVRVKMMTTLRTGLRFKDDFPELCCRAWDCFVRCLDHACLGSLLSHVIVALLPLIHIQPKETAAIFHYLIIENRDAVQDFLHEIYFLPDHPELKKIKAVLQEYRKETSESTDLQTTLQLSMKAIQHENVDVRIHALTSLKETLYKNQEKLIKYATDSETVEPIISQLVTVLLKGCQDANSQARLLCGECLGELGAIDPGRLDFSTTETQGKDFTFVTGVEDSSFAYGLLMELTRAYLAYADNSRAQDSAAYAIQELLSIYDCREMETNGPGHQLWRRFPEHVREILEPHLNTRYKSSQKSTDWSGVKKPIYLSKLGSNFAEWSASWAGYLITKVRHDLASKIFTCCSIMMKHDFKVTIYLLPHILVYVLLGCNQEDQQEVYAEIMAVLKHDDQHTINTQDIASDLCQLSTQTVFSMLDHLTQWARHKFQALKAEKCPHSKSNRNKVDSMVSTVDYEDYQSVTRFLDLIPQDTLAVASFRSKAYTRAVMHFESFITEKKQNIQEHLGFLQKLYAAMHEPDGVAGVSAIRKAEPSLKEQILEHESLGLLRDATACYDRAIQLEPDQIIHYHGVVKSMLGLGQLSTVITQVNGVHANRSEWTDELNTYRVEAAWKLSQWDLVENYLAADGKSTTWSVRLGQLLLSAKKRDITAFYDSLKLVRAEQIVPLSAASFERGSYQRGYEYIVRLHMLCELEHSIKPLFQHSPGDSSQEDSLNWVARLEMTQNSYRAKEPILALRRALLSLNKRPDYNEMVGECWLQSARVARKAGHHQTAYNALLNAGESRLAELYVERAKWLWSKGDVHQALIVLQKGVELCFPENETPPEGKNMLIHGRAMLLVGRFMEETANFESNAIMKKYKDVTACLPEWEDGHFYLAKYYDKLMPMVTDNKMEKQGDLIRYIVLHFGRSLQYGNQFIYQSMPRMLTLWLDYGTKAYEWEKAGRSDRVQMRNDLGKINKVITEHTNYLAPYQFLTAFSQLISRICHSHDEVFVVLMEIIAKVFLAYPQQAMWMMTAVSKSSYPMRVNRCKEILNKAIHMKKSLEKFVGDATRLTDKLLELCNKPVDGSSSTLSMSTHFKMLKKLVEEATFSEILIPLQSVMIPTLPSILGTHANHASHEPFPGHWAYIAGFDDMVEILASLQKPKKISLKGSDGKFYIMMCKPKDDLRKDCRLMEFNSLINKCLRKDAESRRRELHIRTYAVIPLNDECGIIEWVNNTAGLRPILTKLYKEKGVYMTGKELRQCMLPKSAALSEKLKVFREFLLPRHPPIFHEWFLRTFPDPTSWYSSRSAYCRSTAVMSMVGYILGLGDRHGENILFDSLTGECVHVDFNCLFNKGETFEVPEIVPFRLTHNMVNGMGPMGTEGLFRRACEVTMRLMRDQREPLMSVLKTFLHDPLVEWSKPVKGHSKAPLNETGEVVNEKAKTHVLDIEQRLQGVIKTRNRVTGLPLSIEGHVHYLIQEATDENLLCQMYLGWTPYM

Compound	Ki [1] [nM]	CP3 Shift [2]
CNCc1ccc(-c2nnc(-c3cc(-c4cnc(S(=O)(=O)C(C)C)cn4)cnc3N)o2)cc1 [III-5, 5-(5-Isopropylsulfonylpyrazin-2-yl)-3-[5-[4-(methylaminomethyl)phenyl]-1,3,4-oxadiazol-2-yl]pyridin-2-amine]	≤ 10	
Cc1ccc(-c2cc(-c3cc(-c4ccc(S(=O)(=O)C(C)C)cn4)cnc3N)on2)cc1 [III-6, 5-(5-Isopropylsulfonyl-2-pyridyl)-3-[3-(p-tolyl)isoxazol-5-yl]pyridin-2-amine]	10 to 100	
Nc1ncc(-c2cccnc2)cc1C(=O)Nc1ccccc1 [III-7, 2-Amino-N-phenyl-5-(3-pyridyl)pyridine-3-carboxamide]	100 to 5000	
CNCc1ccc(-c2cc(-c3cc(-c4ccc(S(=O)(=O)C(C)C)cn4)cnc3N)on2)c(F)c1 [III-8, 3-[3-[2-Fluoro-4-(methylaminomethyl)phenyl]isoxazol-5-yl]-5-(5-isopropylsulfonyl-2-pyridyl)pyridin-2-amine]	≤ 10	.234 µM
CNCc1ccc(-c2nnc(-c3cc(-c4ccsc4)cnc3N)o2)cc1 [III-9, 3-[5-[4-(Methylaminomethyl)phenyl]-1,3,4-oxadiazol-2-yl]-5-(3-thienyl)pyridin-2-amine]	10 to 100	
CNCc1ccc(-c2nnc(-c3cc(-c4ccc(S(=O)(=O)C(C)C)cn4)cnc3N)o2)cc1 [III-10, 5-(5-Isopropylsulfonyl-2-pyridyl)-3-[5-[4-(methylaminomethyl)phenyl]-1,3,4-oxadiazol-2-yl]pyridin-2-amine]	≤ 10	.078 µM
CNCc1ccc(-c2nnc(-c3cc(-c4ccc(S(=O)(=O)C(C)C)cc4)cnc3N)o2)cc1 [III-11, 5-(4-Isopropylsulfonylphenyl)-3-[5-[4-(methylaminomethyl)phenyl]-1,3,4-oxadiazol-2-yl]pyridin-2-amine]	≤ 10	.156 µM
CNCc1ccc(-c2cc(-c3cc(-c4ccc(S(=O)(=O)C(C)C)cn4)cnc3N)on2)cc1 [III-12, 5-(5-Isopropylsulfonyl-2-pyridyl)-3-[3-[4-(methylaminomethyl)phenyl]isoxazol-5-yl]pyridin-2-amine]	≤ 10	.156 µM

Further lines, with some results ahead:

Ki [1] [nM]	Compound	CP3 Shift [2]
≤ 10	CNCc1ccc(-c2nnc(-c3cc(-c4ccc(S(=O)(=O)[C@@H]5CCOC5)cc4)cnc3N)o2)cc1 [III-1, 3-[5-[4-(Methylaminomethyl)phenyl]-1,3,4-oxadiazol-2-yl]-5-[4-[(3R)-tetrahydrofuran-3-yl]sulfonylphenyl]pyridin-2-amine]	
10 to 100	Nc1ncc(-c2ccc(C(=O)N3CCCNCC3)cc2)cc1-c1nnc(-c2ccccc2)o1 [III-2, [4-[6-Amino-5-(5-phenyl-1,3,4-oxadiazol-2-yl)-3-pyridyl]phenyl]-(1,4-diazepan-1-yl)methanone]	
10 to 100	CS(=O)(=O)c1ccc(-c2cnc(N)c(-c3nnc(-c4ccccc4)o3)c2)cc1 [III-3, 5-(4-(Methylsulfonyl)phenyl)-3-(5-phenyl-1,3,4-oxadiazol-2-yl)pyridin-2-amine]	
10 to 100	CCS(=O)(=O)N1CC=C(c2cnc(N)c(-c3nnc(-c4ccccc4)o3)c2)CC1 [III-4, 5-(1-Ethylsulfonyl-3,6-dihydro-2H-pyridin-4-yl)-3-(5-phenyl-1,3,4-oxadiazol-2-yl)pyridin-2-amine]	
